This assay deals with T1, GST-YTHDC1 (345-509) protein (Homo sapiens, UniProt Q96MU7).
T1 construct: GST-YTHDC1 (345-509) protein
The assay can be described thus: Fluorescence polarization-based in vitro enzyme-level test against YTHDC1. As to conditions: 30 nM GST-YTHDC1 (345-509), FAM-labeled m6A-modified single-stranded oligonucleotide, 18° C., 4 hours; read-out: IC50 (Inhibitory Activity against YTHDC1). The format is binding. For orientation: Polarisation of emitted light reports the rotation of a fluorescent probe.

A word on the IC50: it is the concentration that gives 50% inhibition. Regarding `O=C(Nc1ccc(-c2ccsc2)cc1)c1cc(C(=O)c2ccccc2C(F)(F)F)c[nH]1` [Compound 26], the IC50 was 64 nM.

Regarding `CC1CCN(c2ccccc2C(=O)c2c[nH]c(C(=O)Nc3ccc(-c4cnco4)cc3)c2)CC1` [Compound 125], the IC50 amounted to 13 nM.

Take `O=C(Nc1ccc(-c2cnco2)cc1)c1cc(C(=O)c2ccccc2N2CCC(F)C2)c[nH]1` (stereo not shown) [Compound 137]: the IC50 stood at 11 nM.

In the case of `O=C(Nc1ccc2c(c1)OCC1CNCCN21)c1cc(C(=O)c2ccccc2C(F)(F)F)c[nH]1` (stereo not shown) [Compound 91], the half-maximal inhibitory concentration (IC50) turned out to be 937 nM.

Turning to `O=C(Nc1cccnc1)c1cc(C(=O)c2c(Br)ccc(F)c2F)c[nH]1` [Compound 4], the IC50 was above 50000 nM.

For `O=C(Nc1ccc(-c2cnc(N3CCOCC3)o2)cc1)c1cc(C(=O)c2ccccc2Br)c[nH]1` [Compound 78], the IC50 stood at 123 nM.

On to `O=C(Nc1ccc(Cc2ccccc2)cc1)c1cc(C(=O)c2ccccc2C(F)(F)F)c[nH]1` [Compound 119], for which the concentration for half-maximal inhibition (IC50) came to 14200 nM.

For `C[C@@H]1CN(c2ccccc2C(=O)c2c[nH]c(C(=O)Nc3ccc(-c4cnco4)cc3)c2)C[C@H](C)O1` [Compound 147], the concentration for half-maximal inhibition (IC50) came out at 190 nM.

Regarding `CC(C)(C)OC(=O)N1CCN(c2ncc(-c3ccc(NC(=O)c4cc(C(=O)C5C=CC=CC5Br)c[nH]4)cc3)o2)CC1` (stereo not shown) [Compound 84], the concentration for half-maximal inhibition (IC50) is above 50000 nM.

Take `CCN(CCNc1ncc(-c2ccc(NC(=O)c3cc(C(=O)c4ccccc4C(F)(F)F)c[nH]3)cc2)o1)C(=O)OC(C)(C)C` [Compound 76]: the IC50 was determined as 5040 nM.

`O=C(Nc1ccc(-c2cnc(N3CCC3)o2)cc1)c1cc(C(=O)c2ccccc2C(F)(F)F)c[nH]1` [Compound 104]: the IC50 was 9 nM.

Take `CN1CCN(c2ncc(-c3ccc(NC(=O)c4cc(C(=O)c5ccccc5Br)c[nH]4)cc3)o2)CC1` [Compound 80]: the IC50 stood at 344 nM.

As for `O=C(Nc1ccc(-c2cnc(N3CCN(C4COC4)CC3)o2)cc1)c1cc(C(=O)c2ccccc2C(F)(F)F)c[nH]1` [Compound 88], the 50% inhibitory concentration (IC50) was 71.2 nM.

Take `O=C(Nc1ccc(-c2cnco2)cc1)c1cc(C(=O)c2ccccc2C2=COCC2)c[nH]1` [Compound 145]: the IC50 came out at 39 nM.

Turning to `O=C(Nc1ccc(-c2cnco2)cc1)c1cc(C(=O)c2ccccc2C2CCCC2)c[nH]1` [Compound 146], the half-maximal inhibitory concentration (IC50) came out at 21 nM.

For the molecule `O=C(Nc1ccc(-c2cncs2)cc1)c1cc2c(-c3ccccc3[N+](=O)[O-])nccc2[nH]1` [Compound 55], the 50% inhibitory concentration (IC50) was 278 nM.

With `O=C(Nc1ccccc1F)c1cc(C(=O)c2ccccc2C(F)(F)F)c[nH]1` [Compound 13], the concentration for half-maximal inhibition (IC50) stood at 612 nM.

For the molecule `O=C(Nc1ccc(C(F)(F)F)c(F)c1)c1cc(C(=O)c2ccccc2C(F)(F)F)c[nH]1` [Compound 113], the concentration for half-maximal inhibition (IC50) was found to be 54 nM.

Turning to `O=C(Nc1ccc(-c2ccccn2)cc1)c1cc(C(=O)c2ccccc2C(F)(F)F)c[nH]1` [Compound 22], the IC50 was 23 nM.

As to `O=C(Nc1ccc(-c2cnco2)cc1)c1cc(C(=O)c2ccccc2N2CCCCCC2)c[nH]1` [Compound 140], the IC50 stood at 134 nM.

As for `COCOc1cc(NC(=O)c2cc(C(=O)c3ccccc3C(F)(F)F)c[nH]2)ccc1-c1cnco1` [Compound 96], the IC50 was found to be 14.5 nM.

Consider `O=C(Nc1ccc(Br)cc1)c1cc(C(=O)c2ccccc2C(F)(F)F)c[nH]1` [Compound 16], for which the IC50 is 41 nM.

As for `CN1CCN2c3ccc(NC(=O)c4cc(C(=O)c5ccccc5C(F)(F)F)c[nH]4)cc3OCC2C1` (stereo not shown) [Compound 92], the IC50 is 409 nM.

For `Cc1ncc(-c2ccc(NC(=O)c3cc(C(=O)c4ccccc4C(F)(F)F)c[nH]3)cc2)s1` [Compound 32], the IC50 came to 11 nM.

As to `Cc1cc(-c2cnco2)ccc1NC(=O)c1cc(C(=O)c2ccccc2C(F)(F)F)c[nH]1` [Compound 95], the IC50 is 39 nM.

As for `COc1cc(NC(=O)c2cc(C(=O)c3ccccc3C(F)(F)F)c[nH]2)ccc1C(F)(F)F` [Compound 114], the concentration for half-maximal inhibition (IC50) amounted to 16 nM.

For the molecule `O=C(c1ccc(C(F)(F)F)cc1)c1c[nH]c(C(=O)Nc2ccc(-c3cncs3)cc2)c1` [Compound 39], the IC50 was above 50000 nM.

As to `CN1CCN(c2ncc(-c3ccc(NC(=O)c4cc(C(=O)c5ccccc5C(F)(F)F)c[nH]4)cc3)o2)CC1` [Compound 79], the concentration for half-maximal inhibition (IC50) was found to be 88 nM.

As for `O=C(Nc1ccc(S(=O)(=O)Nc2ccccc2)cc1)c1cc(C(=O)c2ccccc2C(F)(F)F)c[nH]1` [Compound 123], the IC50 came out at 118 nM.

Regarding `O=C(Nc1ccc(-c2cncs2)cc1)c1cc2c(-c3ccccc3CO)nccc2[nH]1` [Compound 45], the IC50 was above 50000 nM.

As for `C[C@H]1CN(c2ccccc2C(=O)c2c[nH]c(C(=O)Nc3ccc(-c4cnco4)cc3)c2)C[C@H](C)O1` [Compound 149], the concentration for half-maximal inhibition (IC50) turned out to be 41 nM.

As to `O=C1CC2C=C(c3ccc(NC(=O)c4cc(C(=O)c5ccccc5C(F)(F)F)c[nH]4)cc3)C=CC2N1` (stereo not shown) [Compound 126], the IC50 worked out at 13 nM.

Turning to `O=C(Nc1ccc(-c2cnc(N3CCOCC3)o2)cc1)c1cc(C(=O)c2ccccc2C(F)(F)F)c[nH]1` [Compound 77], the IC50 amounted to 67 nM.

On to `O=C(Nc1ccc(-c2cnco2)cc1)c1cc(C(=O)c2ccccc2N2CC(F)C2)c[nH]1` [Compound 153], for which the IC50 is 14 nM.

Turning to `O=C(Nc1ccccc1)c1ccc(NC(=O)c2cc(C(=O)c3ccccc3C(F)(F)F)c[nH]2)cc1` [Compound 111], the half-maximal inhibitory concentration (IC50) came out at 367 nM.

`O=C(Nc1ccc(-c2cncs2)cc1)c1cc2c(-c3ccccc3F)nccc2[nH]1` [Compound 53]: the IC50 is above 50000 nM.

`CN(C)CCOc1cc(NC(=O)c2cc(C(=O)c3ccccc3C(F)(F)F)c[nH]2)ccc1-c1cnco1` [Compound 98]: the concentration for half-maximal inhibition (IC50) was 15 nM.

Regarding `O=C(Nc1ccc(-c2cnc(N3CCN(S(=O)(=O)C4CC4)CC3)o2)cc1)c1cc(C(=O)C2C=CC=CC2Br)c[nH]1` (stereo not shown) [Compound 87], the IC50 came out at 2320 nM.

Turning to `O=C(Nc1ccc(-c2cnco2)cc1)c1cc(C(=O)c2ccccc2N2CCCC2=O)c[nH]1` [Compound 121], the IC50 came out at 25 nM.

In the case of `CN1CCN(c2ccc(-c3ccc(NC(=O)c4cc(C(=O)c5ccccc5C(F)(F)F)c[nH]4)cc3)cc2)CC1` [Compound 109], the IC50 stood at 44 nM.

Consider `O=C(Nc1ccc(-c2cncs2)cc1)c1cc2c(-c3ccccc3)nccc2[nH]1` [Compound 47], for which the IC50 is above 50000 nM.

In the case of `O=C(Nc1ccc(-c2cnc(N3CC(F)(F)C3)s2)cc1)c1cc(C(=O)c2ccccc2C(F)(F)F)c[nH]1` [Compound 35], the IC50 was determined as 424 nM.

As to `O=C(Nc1ccc(-c2cnco2)cc1)c1cc(C(=O)c2ccccc2CCCCO)c[nH]1` [Compound 143], the IC50 was 9 nM.

In the case of `O=C(Nc1ccc(-c2cnc[nH]2)cc1)c1cc(C(=O)c2ccccc2C(F)(F)F)c[nH]1` [Compound 27], the IC50 was found to be 23 nM.

In the case of `O=C(Nc1cccnc1)c1cc(C(=O)c2ccccc2C(F)(F)F)c[nH]1` [Compound 2], the IC50 is 800 nM.

With `CS(=O)(=O)c1ccccc1-c1nccc2cc(C(=O)Nc3ccc(-c4cncs4)cc3)[nH]c12` [Compound 50], the IC50 worked out at 67 nM.

As to `CS(=O)(=O)c1ccccc1-c1ncc(F)c2[nH]c(C(=O)Nc3ccc(-c4cncs4)cc3)cc12` [Compound 58], the IC50 was 80 nM.

Regarding `O=C(Nc1ccc(-c2ccccc2)cc1)c1cc(C(=O)c2ccccc2C(F)(F)F)c[nH]1` [Compound 21], the IC50 was 71 nM.

`O=C(Nc1cccnc1)c1cc(C(=O)c2c(F)cc(F)cc2Br)c[nH]1` [Compound 3]: the concentration for half-maximal inhibition (IC50) is above 50000 nM.

As for `O=C(Nc1ccc(C(F)(F)F)cc1)c1cc(C(=O)c2ccccc2C(F)(F)F)c[nH]1` [Compound 18], the IC50 is 39 nM.

For `O=C(Nc1ccc2c(c1)CCN2c1ccccc1)c1cc(C(=O)c2ccccc2C(F)(F)F)c[nH]1` [Compound 133], the IC50 is 747 nM.

Turning to `CC(C)n1nccc1-c1nccc2[nH]c(C(=O)Nc3ccc(-c4cncs4)cc3)cc12` [Compound 40], the IC50 is above 50000 nM.

As for `CCN1CCN(c2ccccc2C(=O)c2c[nH]c(C(=O)Nc3ccc(-c4cnco4)cc3)c2)CC1` [Compound 135], the 50% inhibitory concentration (IC50) is 2820 nM.

Take `COc1cnccc1-c1nccc2[nH]c(C(=O)Nc3ccc(-c4cncs4)cc3)cc12` [Compound 46]: the IC50 was above 50000 nM.

For `COC(=O)c1cccc(-c2ccc(NC(=O)c3cc(C(=O)c4ccccc4C(F)(F)F)c[nH]3)cc2)c1` [Compound 108], the IC50 stood at 183 nM.

Consider `O=C(Nc1ccc(-c2cncs2)cc1)c1cc2c(-c3ccccc3OC3CC3)nccc2[nH]1` [Compound 67], for which the half-maximal inhibitory concentration (IC50) is above 50000 nM.

Turning to `O=C(Nc1ccc(-c2cnco2)cc1)c1cc(C(=O)c2ccccc2N2CCCC2)c[nH]1` [Compound 128], the IC50 amounted to 23 nM.

Take `CS(=O)(=O)c1ccccc1-c1ccnc2[nH]c(C(=O)Nc3ccc(-c4cncs4)cc3)cc12` [Compound 70]: the IC50 came to 2280 nM.

Take `O=C(Nc1cccnc1)c1cc(C(=O)c2ccccc2Cl)c[nH]1` [Compound 8]: the concentration for half-maximal inhibition (IC50) came out at 2840 nM.

Turning to `O=C(Nc1ccc(-c2cnc(N3CC(F)C3)s2)cc1)c1cc(C(=O)c2ccccc2C(F)(F)F)c[nH]1` [Compound 34], the 50% inhibitory concentration (IC50) is 22 nM.

For the molecule `CN(C)c1ccccc1-c1nccc2[nH]c(C(=O)Nc3ccc(-c4cncs4)cc3)cc12` [Compound 61], the IC50 was determined as 2510 nM.

`O=C(Nc1ccc(-c2cncs2)cc1)c1cc2c(-c3ccccc3-c3ccccc3)nccc2[nH]1` [Compound 64]: the half-maximal inhibitory concentration (IC50) is 1130 nM.

For the molecule `CS(=O)(=O)c1ccccc1-c1nccc2[nH]c(C(=O)Nc3ccc(-c4cncnc4)cc3)cc12` [Compound 74], the half-maximal inhibitory concentration (IC50) is above 50000 nM.

Regarding `O=C(Nc1ccc2c(c1)OCc1ccccc1-2)c1cc(C(=O)c2ccccc2C(F)(F)F)c[nH]1` [Compound 83], the IC50 turned out to be 98.7 nM.

Take `O=C(Nc1ccc(-c2cncs2)cc1)c1cc2c(-c3ccccc3C3CC3)nccc2[nH]1` [Compound 66]: the IC50 was above 50000 nM.

As for `COC1CN(c2ccccc2C(=O)c2c[nH]c(C(=O)Nc3ccc(-c4cnco4)cc3)c2)C1` [Compound 131], the IC50 was 35 nM.

As for `Cn1nc(C(F)(F)F)cc1-c1ccc(NC(=O)c2cc(C(=O)c3ccccc3C(F)(F)F)c[nH]2)cc1` [Compound 30], the IC50 is 530 nM.

The values above are taken from patent US20260265222A1, “1H-PYRROLE-2-AMIDE DERIVATIVE, PHARMACEUTICAL COMPOSITION AND METHOD FOR TREATING AND/OR PREVENTING YTHDC1-RELATED DISEASES” (priority 2023, published 2026).
